Assay results taken from patent US7244446B2, “Method for providing long-lasting pain diminishment through topical or intranasal administration of civamide” (Winston Laboratories, Inc., priority 2003, dated 2007).

Columns and labels:
[1] = test system: patients with episodic cluster headaches; test: Episodic cluster headache patients, 0.025% civamide intranasally once daily for seven days, three-week follow-up; type: in vivo, human; settings: 0.1 ml of 0.025% civamide in aqueous vehicle, each nostril, 7 days
Procedure: Patients with episodic cluster headaches were treated with 0.1 ml of 0.025% civamide in an aqueous vehicle given once daily intranasally to each nostril for seven days. Following completion of the seven-day treatment period, cluster headache patients were followed for another three weeks during which they received no treatment.

[2] = test system: patients with episodic cluster headache; test: Episodic cluster headache patients, 0.01% civamide metered nasal spray twice daily for seven days, six-week follow-up; type: in vivo, human; settings: 0.01% civamide in aqueous vehicle, 7 days
Procedure: Patients with episodic cluster headache were treated with 0.01% civamide in an aqueous vehicle delivered by metered nasal spray twice daily for seven days. The patients were then followed for an additional six weeks after treatment.

[3] = test system: painful, inflammatory or allergic disorders; settings: compositions containing civamide; from U.S. Pat. No. 5,063,060; cited from earlier work
[4] = test system: patients with long-standing painful osteoarthritis of the knees; test: Painful osteoarthritis of the knees, 0.075% civamide cream three times daily for two to four weeks, then discontinued; type: in vivo, human; settings: 0.075% civamide in cream vehicle, topical
Text: Patients with long-standing painful osteoarthritis of the knees applied 0.075% civamide in a cream vehicle three times daily for two to four weeks, and then the medication was discontinued. Relief of painful osteoarthritis continued for as long as 2–4 months after discontinuing the medication.

## COc1cc(CNC(=O)CCCC/C=C\C(C)C)ccc1O [civamide, cis-8-methyl-N-vanillyl-6-nonenamide]
[1]; three weeks after completion
  Headache frequency three weeks after treatment versus during or immediately after treatment: lower three weeks following completion of treatment than during or immediately after the treatment period
[1]; three weeks follow-up without treatment
  Frequency of cluster headaches after completion of treatment: decreased continuously over the three weeks following completion of the short course (7 days) of treatment
[2]; six weeks follow-up
  Frequency of cluster headache over follow-up: declined continuously over the six-week period
[2]; week six after treatment
  Reduction in headaches during week six: ~65%
[3]
  Efficacy compared with compositions containing capsaicin: comparable in efficacy to compositions containing capsaicin
  Local adverse effects compared with capsaicin: significantly less local adverse effects normally associated with capsaicin
[4]
  Duration of relief of painful osteoarthritis after discontinuing the medication: 2–4 months
